Data published in patent US8329755B2, “Methods for treating retroviral infections” (Roche Palo Alto LLC, priority 2004, dated 2012).

First: CSCCNS(=O)(=O)c1ccc(NC(=O)Cc2ccc(C)c(Oc3cc(Cl)cc(C#N)c3)c2)c(C)c1 [Compound I-130, 2-[3-(3-Chloro-5-cyano-phenoxy)-4-methyl-phenyl]-N-[2-methyl-4-(2-methylsulfanyl-ethylsulfamoyl)-phenyl]-acetamide]
Second: CSCCCNS(=O)(=O)c1ccc(NC(=O)Cc2ccc(C)c(Oc3cc(Cl)cc(C#N)c3)c2)c(C)c1 [Compound I-131, 2-[3-(3-Chloro-5-cyano-phenoxy)-4-methyl-phenyl]-N-[2-methyl-4-(3-methylsulfanyl-propylsulfamoyl)-phenyl]-acetamide]
The melting point of the first is lower: 155.6 to 156.6 °C for the first, 159.9 to 162.8 °C for the second.

COc1cc(CC(=O)Nc2ccc(S(N)(=O)=O)cc2)cc(Oc2cc(Cl)cc(C#N)c2)c1 [Compound I-132, 2-[3-(3-Chloro-5-cyano-phenoxy)-5-methoxy-phenyl]-N-(4-sulfamoyl-phenyl)-acetamide] and Cc1cc(CC(=O)Nc2ccc(S(N)(=O)=O)cc2)cc(Oc2cc(Cl)cc(C#N)c2)c1 [Compound I-141, 2-[3-(3-Chloro-5-cyano-phenoxy)-5-methyl-phenyl]-N-(4-sulfamoyl-phenyl)-acetamide] cannot be ordered by melting point: 184.1 to 185.5 °C for the first, 183.9 to 185.2 °C for the second.

First: COc1cc(CC(=O)Nc2ccc(S(N)(=O)=O)cc2C)cc(Oc2cc(Cl)cc(C#N)c2)c1 [Compound I-133, 2-[3-(3-Chloro-5-cyano-phenoxy)-5-methoxy-phenyl]-N-(2-methyl-4-sulfamoyl-phenyl)-acetamide]
Second: COc1cc(CC(=O)Nc2ccc(S(N)(=O)=O)cc2Cl)cc(Oc2cc(Cl)cc(C#N)c2)c1 [Compound I-136, 2-[3-(3-Chloro-5-cyano-phenoxy)-5-methoxy-phenyl]-N-(2-chloro-4-sulfamoyl-phenyl)-acetamide]
The melting point of the first is higher: 169.9 to 171.1 °C for the first, 159 to 161.1 °C for the second.

First: Cc1cc(S(=O)(=O)CCC#N)ccc1NC(=O)Cc1ccc(C)c(Oc2cc(Cl)cc(C#N)c2)c1 [Compound I-137, 2-[3-(3-Chloro-5-cyano-phenoxy)-4-methyl-phenyl]-N-[4-(2-cyano-ethanesulfonyl)-2-methyl-phenyl]-acetamide]
Second: Cc1cc(S(=O)(=O)CCN)ccc1NC(=O)Cc1ccc(C)c(Oc2cc(Cl)cc(C#N)c2)c1 [Compound I-154, N-[4-(2-Amino-ethanesulfonyl)-2-methyl-phenyl]-2-[3-(3-chloro-5-cyano-phenoxy)-4-methyl-phenyl]-acetamide]
The melting point of the first is higher: 186.1 to 188 °C for the first, 92.4 to 95.5 °C for the second.

First: CCCC(=O)NS(=O)(=O)c1ccc(NC(=O)Cc2ccc(Cl)c(Oc3cc(Cl)cc(C#N)c3)c2F)c(Cl)c1.[Na] [Compound I-138, N-(4-Butyrylsulfamoyl-2-chloro-phenyl)-2-[4-chloro-3-(3-chloro-5-cyano-phenoxy)-2-fluoro-phenyl]-acetamide; sodium salt]
Second: CCCC(=O)N(C)S(=O)(=O)c1ccc(NC(=O)Cc2ccc(Cl)c(Oc3cc(Cl)cc(C#N)c3)c2F)c(Cl)c1 [Compound I-139, N-[4-(Butyryl-methyl-sulfamoyl)-2-chloro-phenyl]-2-[4-chloro-3-(3-chloro-5-cyano-phenoxy)-2-fluoro-phenyl]-acetamide]
The melting point of the first is lower: 157.2 to 157.9 °C for the first, 186.9 to 187.6 °C for the second.

First: CCc1ccc(CC(=O)Nc2ccc(S(N)(=O)=O)cc2Cl)cc1Oc1cc(C#N)cc(C(F)F)c1 [Compound I-140, N-(2-Chloro-4-sulfamoyl-phenyl)-2-[3-(3-cyano-5-difluoromethyl-phenoxy)-4-ethyl-phenyl]-acetamide]
Second: N#Cc1cc(Oc2c(Br)ccc(CC(=O)Nc3ccc(S(N)(=O)=O)cc3Cl)c2F)cc(C(F)F)c1 [Compound I-165, 2-[4-Bromo-3-(3-cyano-5-difluoromethyl-phenoxy)-2-fluoro-phenyl]-N-(2-chloro-4-sulfamoyl-phenyl)-acetamide]
The melting point of the first is lower: 191.8 to 192.5 °C for the first, 205.4 to 207.7 °C for the second.

First: Cc1cc(CC(=O)Nc2ccc(S(N)(=O)=O)cc2C)cc(Oc2cc(Cl)cc(C#N)c2)c1 [Compound I-142, 2-[3-(3-Chloro-5-cyano-phenoxy)-5-methyl-phenyl]-N-(2-methyl-4-sulfamoyl-phenyl)-acetamide]
Second: Cc1cc(CC(=O)Nc2ccc(S(N)(=O)=O)cc2Cl)cc(Oc2cc(Cl)cc(C#N)c2)c1 [Compound I-143, 2-[3-(3-Chloro-5-cyano-phenoxy)-5-methyl-phenyl]-N-(2-chloro-4-sulfamoyl-phenyl)-acetamide]
The melting point of the first is lower: 184.8 to 186 °C for the first, 194.1 to 195.9 °C for the second.

First: N#Cc1cccc(Oc2cc(CC(=O)Nc3ccc(S(N)(=O)=O)cc3)cc3ccoc23)c1 [Compound I-144, 2-[7-(3-Cyano-phenoxy)-benzofuran-5-yl]-N-(4-sulfamoyl-phenyl)-acetamide]
Second: Cc1cc(S(N)(=O)=O)ccc1NC(=O)Cc1cc(Oc2cccc(C#N)c2)c2occc2c1 [Compound I-145, 2-[7-(3-Cyano-phenoxy)-benzofuran-5-yl]-N-(2-methyl-4-sulfamoyl-phenyl)-acetamide]
The melting point of the first is lower: 196.4 to 198.7 °C for the first, 218.9 to 220 °C for the second.

Compared with Cc1cc(CC(=O)Nc2ccc(S(N)(=O)=O)cc2)cc(Oc2cc(C#N)ccc2Cl)c1 [Compound I-146, 2-[3-(2-Chloro-5-cyano-phenoxy)-5-methyl-phenyl]-N-(4-sulfamoyl-phenyl)-acetamide], Cc1cc(CC(=O)Nc2ccc(S(N)(=O)=O)cc2C)cc(Oc2cc(C#N)ccc2Cl)c1 [Compound I-147, 2-[3-(2-Chloro-5-cyano-phenoxy)-5-methyl-phenyl]-N-(2-methyl-4-sulfamoyl-phenyl)-acetamide] is lower in melting point: 235.9 to 236.7 °C for the first, 200.3 to 201.1 °C for the second.

First: Cc1cc(CC(=O)Nc2ccc(S(N)(=O)=O)cc2Cl)cc(Oc2cc(C#N)ccc2Cl)c1 [Compound I-148, 2-[3-(2-Chloro-5-cyano-phenoxy)-5-methyl-phenyl]-N-(2-chloro-4-sulfamoyl-phenyl)-acetamide]
Second: NS(=O)(=O)c1ccc(NC(=O)Cc2cc(Oc3cc(Cl)cc(Cl)c3)c3occc3c2)c(Cl)c1 [Compound I-149, N-(2-Chloro-4-sulfamoyl-phenyl)-2-[7-(3,5-dichloro-phenoxy)-benzofuran-5-yl]-acetamide]
The melting point of the first is lower: 212.9 to 214.4 °C for the first, 215.1 to 216.6 °C for the second.

First: Cc1cc(OC[C@@H](O)CO)ccc1NC(=O)Cc1ccc(C)c(Oc2cc(Cl)cc(C#N)c2)c1 [Compound I-150, 2-[3-(3-Chloro-5-cyano-phenoxy)-4-methyl-phenyl]-N-[4-((S)-2,3-dihydroxy-propoxy)-2-methyl-phenyl]-acetamide]
Second: Cc1cc(OCC[C@@H](O)CO)ccc1NC(=O)Cc1ccc(C)c(Oc2cc(Cl)cc(C#N)c2)c1 [Compound I-151, 2-[3-(3-Chloro-5-cyano-phenoxy)-4-methyl-phenyl]-N-[4-((R)-3,4-dihydroxy-butoxy)-2-methyl-phenyl]-acetamide]
The melting point of the first is higher: 137.5 to 138.4 °C for the first, 104.9 to 106.4 °C for the second.

First: Cc1cc(S(=O)(=O)CC(=O)O)ccc1NC(=O)Cc1ccc(C)c(Oc2cc(Cl)cc(C#N)c2)c1 [Compound I-152, (4-{2-[3-(3-Chloro-5-cyano-phenoxy)-4-methyl-phenyl]-acetylamino}-3-methyl-benzenesulfonyl)-acetic acid]
Second: Cc1cc(S(=O)(=O)CCCO)ccc1NC(=O)Cc1ccc(C)c(Oc2cc(Cl)cc(C#N)c2)c1 [Compound I-157, 2-[3-(3-Chloro-5-cyano-phenoxy)-4-methyl-phenyl]-N-[4-(3-hydroxy-propane-1-sulfonyl)-2-methyl-phenyl]-acetamide]
The melting point of the first is higher: 180.5 to 181.4 °C for the first, 78.9 to 79.5 °C for the second.

First: Cc1cc(N2CCCCS2(=O)=O)ccc1NC(=O)Cc1ccc(C)c(Oc2cc(Cl)cc(C#N)c2)c1 [Compound I-158, 2-[3-(3-Chloro-5-cyano-phenoxy)-4-methyl-phenyl]-N-[4-(1,1-dioxo-1λ^6-[1,2]thiazinan-2-yl)-2-methyl-phenyl]-acetamide]
Second: Cc1cc(N2CCCS2(=O)=O)ccc1NC(=O)Cc1ccc(C)c(Oc2cc(Cl)cc(C#N)c2)c1 [Compound I-170, 2-[3-(3-Chloro-5-cyano-phenoxy)-4-methyl-phenyl]-N-[4-(1,1-dioxo-1λ^6-isothiazolidin-2-yl)-2-methyl-phenyl]-acetamide]
The melting point of the first is lower: 84.3 to 85.6 °C for the first, 182.5 to 184.6 °C for the second.

First: Cc1cc(C(=O)CN2CCN(C)CC2)ccc1NC(=O)Cc1ccc(C)c(Oc2cc(Cl)cc(C#N)c2)c1 [Compound I-159, 2-[3-(3-Chloro-5-cyano-phenoxy)-4-methyl-phenyl]-N-{2-methyl-4-[2-(4-methyl-piperazin-1-yl)-acetyl]-phenyl}-acetamide]
Second: Cc1cc(N2CCS(=O)(=O)CC2)ccc1NC(=O)Cc1ccc(C)c(Oc2cc(Cl)cc(C#N)c2)c1 [Compound I-161, 2-[3-(3-Chloro-5-cyano-phenoxy)-4-methyl-phenyl]-N-[4-(1,1-dioxo-1λ^6-thiomorpholin-4-yl)-2-methyl-phenyl]-acetamide]
The melting point of the first is lower: 62.3 to 64.1 °C for the first, 64.8 to 65.4 °C for the second.

First: Cc1cc(N2CC[S+]([O-])CC2)ccc1NC(=O)Cc1ccc(C)c(Oc2cc(Cl)cc(C#N)c2)c1 [Compound I-160, 2-[3-(3-Chloro-5-cyano-phenoxy)-4-methyl-phenyl]-N-[2-methyl-4-(1-oxo-1λ^4-thiomorpholin-4-yl)-phenyl]-acetamide]
Second: CNS(=O)(=O)c1ccc(NC(=O)Cc2ccc(Cl)c(Oc3cc(Cl)cc(C#N)c3)c2F)c(Cl)c1 [Compound I-168, 2-[4-Chloro-3-(3-chloro-5-cyano-phenoxy)-2-fluoro-phenyl]-N-(2-chloro-4-methylsulfamoyl-phenyl)-acetamide]
The melting point of the first is lower: 181.3 to 182.1 °C for the first, 199.1 to 200 °C for the second.

First: CCC(=O)N(C)S(=O)(=O)c1ccc(NC(=O)Cc2ccc(Cl)c(Oc3cc(Cl)cc(C#N)c3)c2F)c(Cl)c1 [Compound I-162, 2-[4-Chloro-3-(3-chloro-5-cyano-phenoxy)-2-fluoro-phenyl]-N-[2-chloro-4-(methyl-propionyl-sulfamoyl)-phenyl]-acetamide]
Second: Cc1cc(S(N)(=O)=O)ccc1NC(=O)Cc1ccc(Br)c(Oc2cc(C#N)cc(C(F)F)c2)c1F [Compound I-169, 2-[4-Bromo-3-(3-cyano-5-difluoromethyl-phenoxy)-2-fluoro-phenyl]-N-(2-methyl-4-sulfamoyl-phenyl)-acetamide]
The melting point of the first is lower: 198.2 to 200.6 °C for the first, 223.9 to 225 °C for the second.
